The NIST ThermoML archive (doi:10.1016/j.fluid.2013.06.021)
± gives the expanded uncertainty stated by the source.

Assay: xn = mol fraction of the nth substance listed
Conditions: 101 kPa, Liquid; for speed of sound: Sing-around technique in a fixed-path interferometer; for mass density: Vibrating tube method; for viscosity: Capillary tube (Ostwald / Ubbelohde) method

CCCCOCCO [2-butoxyethan-1-ol] + CCC(C)O
speed of sound (293.15 K, x1 = 0.0517): 1236.5 ± 0.8 m/s
speed of sound (293.15 K, x1 = 0.1011): 1242 ± 0.8 m/s
speed of sound (293.15 K, x1 = 0.152): 1247.7 ± 0.79 m/s
speed of sound (293.15 K, x1 = 0.2027): 1253.1 ± 0.78 m/s
speed of sound (293.15 K, x1 = 0.2541): 1258.4 ± 0.78 m/s
speed of sound (293.15 K, x1 = 0.3092): 1264 ± 0.77 m/s
speed of sound (293.15 K, x1 = 0.4012): 1272.9 ± 0.76 m/s
speed of sound (293.15 K, x1 = 0.5011): 1282.2 ± 0.75 m/s
speed of sound (293.15 K, x1 = 0.6065): 1291.4 ± 0.74 m/s
speed of sound (293.15 K, x1 = 0.7054): 1299.8 ± 0.73 m/s
speed of sound (293.15 K, x1 = 0.806): 1307.9 ± 0.72 m/s
speed of sound (293.15 K, x1 = 0.8558): 1311.8 ± 0.72 m/s
speed of sound (293.15 K, x1 = 0.8999): 1315.3 ± 0.71 m/s
speed of sound (293.15 K, x1 = 0.9516): 1319.3 ± 0.71 m/s
mass density (293.15 K, x1 = 0.0517): 813.24 ± 0.14 kg/m3
mass density (293.15 K, x1 = 0.1011): 819.25 ± 0.13 kg/m3
mass density (293.15 K, x1 = 0.152): 825.25 ± 0.13 kg/m3
mass density (293.15 K, x1 = 0.2027): 831.03 ± 0.13 kg/m3
mass density (293.15 K, x1 = 0.2541): 836.67 ± 0.12 kg/m3
mass density (293.15 K, x1 = 0.3092): 842.49 ± 0.12 kg/m3
mass density (293.15 K, x1 = 0.4012): 851.78 ± 0.12 kg/m3
mass density (293.15 K, x1 = 0.5011): 861.21 ± 0.12 kg/m3
mass density (293.15 K, x1 = 0.6065): 870.53 ± 0.1 kg/m3
mass density (293.15 K, x1 = 0.7054): 878.73 ± 0.097 kg/m3
mass density (293.15 K, x1 = 0.806): 886.59 ± 0.09 kg/m3
mass density (293.15 K, x1 = 0.8558): 890.31 ± 0.087 kg/m3
mass density (293.15 K, x1 = 0.8999): 893.54 ± 0.084 kg/m3
mass density (293.15 K, x1 = 0.9516): 897.19 ± 0.082 kg/m3
viscosity (298.15 K, x1 = 0.0517): 2.932 ± 0.12 mPa·s
viscosity (298.15 K, x1 = 0.1011): 2.809 ± 0.12 mPa·s
viscosity (298.15 K, x1 = 0.152): 2.713 ± 0.12 mPa·s
viscosity (298.15 K, x1 = 0.2027): 2.66 ± 0.12 mPa·s
viscosity (298.15 K, x1 = 0.2541): 2.607 ± 0.12 mPa·s
viscosity (298.15 K, x1 = 0.3092): 2.586 ± 0.12 mPa·s
viscosity (298.15 K, x1 = 0.4012): 2.563 ± 0.12 mPa·s
viscosity (298.15 K, x1 = 0.5011): 2.583 ± 0.12 mPa·s
viscosity (298.15 K, x1 = 0.6066): 2.598 ± 0.12 mPa·s
viscosity (298.15 K, x1 = 0.7054): 2.653 ± 0.12 mPa·s
viscosity (298.15 K, x1 = 0.806): 2.711 ± 0.12 mPa·s
viscosity (298.15 K, x1 = 0.8558): 2.747 ± 0.12 mPa·s
viscosity (298.15 K, x1 = 0.8999): 2.796 ± 0.12 mPa·s
viscosity (298.15 K, x1 = 0.9516): 2.824 ± 0.12 mPa·s
speed of sound (298.15 K, x1 = 0.0517): 1218.9 ± 0.8 m/s
speed of sound (298.15 K, x1 = 0.1011): 1224.3 ± 0.79 m/s
speed of sound (298.15 K, x1 = 0.152): 1229.9 ± 0.78 m/s
speed of sound (298.15 K, x1 = 0.2027): 1235.3 ± 0.78 m/s
speed of sound (298.15 K, x1 = 0.2541): 1240.7 ± 0.77 m/s
speed of sound (298.15 K, x1 = 0.3092): 1246.4 ± 0.76 m/s
speed of sound (298.15 K, x1 = 0.4012): 1255.4 ± 0.75 m/s
speed of sound (298.15 K, x1 = 0.5011): 1264.8 ± 0.74 m/s
speed of sound (298.15 K, x1 = 0.6065): 1274.2 ± 0.73 m/s
speed of sound (298.15 K, x1 = 0.7054): 1282.5 ± 0.72 m/s
speed of sound (298.15 K, x1 = 0.806): 1290.7 ± 0.71 m/s
speed of sound (298.15 K, x1 = 0.8558): 1294.6 ± 0.71 m/s
speed of sound (298.15 K, x1 = 0.8999): 1298.1 ± 0.71 m/s
speed of sound (298.15 K, x1 = 0.9516): 1302.2 ± 0.7 m/s
mass density (298.15 K, x1 = 0.0517): 809.099 ± 0.14 kg/m3
mass density (298.15 K, x1 = 0.1011): 815.491 ± 0.13 kg/m3
mass density (298.15 K, x1 = 0.152): 821.091 ± 0.13 kg/m3
mass density (298.15 K, x1 = 0.2027): 826.863 ± 0.13 kg/m3
mass density (298.15 K, x1 = 0.2541): 832.498 ± 0.13 kg/m3
mass density (298.15 K, x1 = 0.3092): 838.314 ± 0.12 kg/m3
mass density (298.15 K, x1 = 0.4012): 847.585 ± 0.12 kg/m3
mass density (298.15 K, x1 = 0.5011): 857.012 ± 0.12 kg/m3
mass density (298.15 K, x1 = 0.6065): 866.34 ± 0.11 kg/m3
mass density (298.15 K, x1 = 0.7054): 874.537 ± 0.098 kg/m3
mass density (298.15 K, x1 = 0.806): 882.398 ± 0.091 kg/m3
mass density (298.15 K, x1 = 0.8558): 886.109 ± 0.088 kg/m3
mass density (298.15 K, x1 = 0.8999): 889.334 ± 0.086 kg/m3
mass density (298.15 K, x1 = 0.9516): 892.99 ± 0.08 kg/m3
viscosity (303.15 K, x1 = 0.0517): 2.441 ± 0.12 mPa·s
viscosity (303.15 K, x1 = 0.1011): 2.357 ± 0.12 mPa·s
viscosity (303.15 K, x1 = 0.152): 2.319 ± 0.12 mPa·s
viscosity (303.15 K, x1 = 0.2027): 2.283 ± 0.12 mPa·s
viscosity (303.15 K, x1 = 0.2541): 2.249 ± 0.12 mPa·s
viscosity (303.15 K, x1 = 0.3092): 2.22 ± 0.12 mPa·s
viscosity (303.15 K, x1 = 0.4012): 2.224 ± 0.12 mPa·s
viscosity (303.15 K, x1 = 0.5011): 2.283 ± 0.12 mPa·s
viscosity (303.15 K, x1 = 0.6066): 2.342 ± 0.12 mPa·s
viscosity (303.15 K, x1 = 0.7054): 2.419 ± 0.12 mPa·s
viscosity (303.15 K, x1 = 0.806): 2.488 ± 0.12 mPa·s
viscosity (303.15 K, x1 = 0.8558): 2.53 ± 0.12 mPa·s
viscosity (303.15 K, x1 = 0.8999): 2.562 ± 0.12 mPa·s
viscosity (303.15 K, x1 = 0.9516): 2.606 ± 0.12 mPa·s
speed of sound (303.15 K, x1 = 0.0517): 1202 ± 0.79 m/s
speed of sound (303.15 K, x1 = 0.1011): 1207 ± 0.78 m/s
speed of sound (303.15 K, x1 = 0.152): 1212.3 ± 0.78 m/s
speed of sound (303.15 K, x1 = 0.2027): 1217.7 ± 0.77 m/s
speed of sound (303.15 K, x1 = 0.2541): 1223 ± 0.76 m/s
speed of sound (303.15 K, x1 = 0.3092): 1228.6 ± 0.76 m/s
speed of sound (303.15 K, x1 = 0.4012): 1237.7 ± 0.75 m/s
